What all share (assay type): cell-based
In assay [1] the test system is lung cancer cell line A549. The experiment in a line: MTT assay of cellular proliferation, A549. Particulars: Homo sapiens, read-out: EC50: Concentration that inhibits 50% of proliferation. As for the experimental part:
(§1) Six lung cancer cell lines (NCI-H23, NCI-H460, NCI-H596, NCI-H2170, Calu-6 and A549), two colon cancer cell lines (HCT116 and SW460), one breast cancer cell line MDA-MB-231, one gastric cancer cell line NCI-N87, one prostate cancer cell line DU145, one cervical cancer cell line Hela, and one glioblastoma cell line T98G were obtained from ATCC. The T2 HCC cell line was derived from a mouse liver cancer model initiated by a transgene of MYC (Reference). All cell lines were cultured in DMEM (Gibco, Cleveland, TN, USA) supplemented with 5% fetal bovine serum (Gibco), penicillin (100 U/mL)-streptomycin (100 μg/mL) (Gibco, Cat. No. 15140-122), 2 mM L-glutamine (Gibco, 200 mM solution, Cat. No. 25030081), and 1 mM sodium pyruvate (Gibco, 100 mM solution, Cat. No. 11360070) at 37° C. in a humidified incubator that was maintained at 5% CO2.
(§2) The MTT assay measures cellular metabolic activity as a proxy for cell viability and involves the conversion of the water-soluble yellow dye MTT [3-(4,5-dimethylthiazol-2-yl)-2,5-diphenyltetrazolium bromide] into an insoluble purple formazan by the action of mitochondrial reductase. Formazan is then solubilized and its concentration is determined by measuring the optical density (OD) value at a wavelength of 570 nm. The value is in proportional to the number of live cells with excellent linearity up to ˜10^6 cells per well. The MTT assay was used to determine the EC50 value, the concentration of a compound that leads to 50% inhibition of cellular proliferation. Briefly, cells were split when growing to the mid-Log phase. Cells in 100 μL of culture medium were seeded into each well of 96-well microplates and cultivated for 15˜24 hours to reach a confluence of 20˜30% and were then exposed to drugs at concentrations ranging from 1 nM to 10 μM. At the endpoint, 20 μL of a MTT stock solution in DMSO (5 mg/mL) was added to each well that contains […] of DMEM. The microplates were left in the cell culture incubator for 3˜4 h before subjected to solubilization and determination of formazan at A570 in a microplate reader (BioTek ELX808iu). […] Therefore, these compounds might hold a broad utility in the treatment of a large variety of human malignancies.
On the technique in general: Tetrazolium assays rely on reduction of a dye to a coloured formazan, in cell work by metabolically active cells.

For assay [2], the system named is RPEMYC^H2B-GFP cells. The assay can be described thus: Mechanism-informed phenotypic screening assay (mitotic arrest, polyploidy; GE IN-Cell Analyzer 2000). To be noted: 20 nM to 20 μM, 24, 48 or 72 hours, read-out: Min. Effective conc. for polyploidy (≥5%). The procedure: We have Previously Developed a Mechanism-Informed Phenotypic Screening Assay to identify novel antimitotic agents (Li et al. 2019). Equipped with a prior understanding of the versatile functions of the chromosomal passenger protein (CPP) complex in orchestrating karyokinesis and cytokinesis, the screening assay is to score for phenotypes typically seen when the CPP complex is disabled. Specifically, the parameters for a positive hit are a temporary elevation of mitotic index (MI) at 24 hours of drug treatment and an accumulation of polyploid cells at 48 hours of drug treatment, indicative of mitotic arrest and cytokinetic failure respectively. These parameters exclude compounds that elicit only a prolonged arrest of cells in mitosis, a phenotype typically provoked by spindle toxins. The screening procedure is briefly summarized here. RPEMYC^H2B-GFP cells engineered to express a Histone 2B-EGFP fusion protein were passaged as batches of 96-well plates, 18-24 hours before exposure to the chemical compounds of the present disclosure at concentrations from 20 nM to 20 μM. At 24, 48 or 72 hours after initiation of treatment, cells were analyzed for either an arrest in mitosis or a change in DNA content by GE IN-Cell Analyzer 2000. As set forth in table 2 below, a value of greater than or equal to […] and less than or equal to 1.0 μM is marked e “A”; a value greater than […] and less than or equal to 10.0 μM is marked “B”; a value greater than 10.0 μM and less than or equal to 30.0 μM is marked “C”; and a value greater than 30.0 μM is marked “D.”

Assay [3] relates to lung cancer cell line A549. The assay can be described thus: Minimal effective concentration that elicits polyploidy, A549. To be noted: Homo sapiens, read-out: MECP: Minimal effective concentration that elicits polyploidy.
The test system of assay [4] is lung cancer cell line NCI-H23. The experiment in a line: Minimal effective concentration that elicits polyploidy, NCI-H23. Particulars: Homo sapiens, read-out: MECP: Minimal effective concentration that elicits polyploidy.
For assay [5], the system named is gastric cancer cell line NCI-N87. The experiment in a line: MTT assay of cellular proliferation, NCI-N87. To be noted: Homo sapiens, read-out: EC50: Concentration that inhibits 50% of proliferation. The procedure:
as §1, §2

Assay [6] has as its system breast cancer cell line MDA-MB-231. The assay can be described thus: Minimal effective concentration that elicits polyploidy, MDA-MB-231. To be noted: Homo sapiens, read-out: MECP: Minimal effective concentration that elicits polyploidy.
For assay [7], the system named is liver cancer cell line T2 HCC. The assay can be described thus: Minimal effective concentration that elicits polyploidy, T2 HCC. Particulars: Mus musculus, read-out: MECP: Minimal effective concentration that elicits polyploidy.
The subject of assay [8] is colon cancer cell line HCT116. The assay can be described thus: MTT assay of cellular proliferation, HCT116. To be noted: Homo sapiens, HCT-116, read-out: EC50: Concentration that inhibits 50% of proliferation. As for the experimental part: as §1, §2
Assay [9] has as its system gastric cancer cell line NCI-N87. The experiment in a line: Minimal effective concentration that elicits polyploidy, NCI-N87. Particulars: Homo sapiens, read-out: MECP: Minimal effective concentration that elicits polyploidy.
In assay [10] the test system is cervical cancer cell line Hela. The experiment in a line: Minimal effective concentration that elicits polyploidy, Hela. To be noted: Homo sapiens, read-out: MECP: Minimal effective concentration that elicits polyploidy.
The test system of assay [11] is RPEMYC^H2B-GFP cells. The assay can be described thus: Mechanism-informed phenotypic screening assay (mitotic arrest, polyploidy; GE IN-Cell Analyzer 2000). Particulars: 20 nM to 20 μM, 24, 48 or 72 hours, read-out: Mitotic Arrest (≥5%).
The test system of assay [12] is colon cancer cell line SW460. The assay can be described thus: MTT assay of cellular proliferation, SW460. To be noted: Homo sapiens, SW480; read-out: EC50: Concentration that inhibits 50% of proliferation. As for the experimental part:
as §1, §2

In assay [13] the test system is SW480. The experiment in a line: Minimal effective concentration that elicits polyploidy, SW480. Particulars: Homo sapiens, read-out: MECP: Minimal effective concentration that elicits polyploidy.
For assay [14], the system named is breast cancer cell line MDA-MB-231. The assay can be described thus: MTT assay of cellular proliferation, MDA-MB-231. Particulars: Homo sapiens, read-out: EC50: Concentration that inhibits 50% of proliferation. As for the experimental part:
as §1, §2

The subject of assay [15] is cervical cancer cell line Hela. The assay can be described thus: MTT assay of cellular proliferation, Hela. To be noted: Homo sapiens, read-out: EC50: Concentration that inhibits 50% of proliferation. As for the experimental part: as §1, §2
In assay [16] the test system is colon cancer cell line HCT116. The experiment in a line: Minimal effective concentration that elicits polyploidy, HCT116. To be noted: Homo sapiens, HCT-116, read-out: MECP: Minimal effective concentration that elicits polyploidy.
Assay [17] has as its system lung cancer cell line NCI-H23. The assay can be described thus: MTT assay of cellular proliferation, NCI-H23. Particulars: Homo sapiens, read-out: EC50: Concentration that inhibits 50% of proliferation. As for the experimental part: as §1, §2
Assay [18] deals with liver cancer cell line T2 HCC. The experiment in a line: MTT assay of cellular proliferation, T2 HCC. Particulars: Mus musculus, read-out: EC50: Concentration that inhibits 50% of proliferation. As for the experimental part: as §1, §2

Where two headings read alike, the source gives them in different places.

Turning to `CNC(=O)c1cc(Oc2ncccc2-c2ccncc2)cc(OC(F)(F)F)c1` [Compound 7, 3-([3,4′-bipyridin]-2-yloxy)-N-methyl-5-(trifluoromethoxy)benzamide], the EC50 in assay [1], in assay [5], in assay [8], in assay [12], in [14] and in assay [15] was 1 to 1000 nM each time. Also, the EC50 in assay [17] and in assay [18] was 1 to 1000 nM throughout. In addition, the minimal effective concentration in assay [2] was 1 µM; in assay [3], 0.001 to 1 µM; in assay [4] it was 0.001 to 1 µM; in assay [6], 0.001 to 1 µM; in [7], 0.001 to 1 µM; in assay [9], 0.001 to 1 µM. For the same molecule, the minimal effective concentration in assay [10] is 0.001 to 1 µM; in [11], 1 µM; in [13], 0.001 to 1 µM; in assay [16] it was 0.001 to 1 µM.
As to `COc1cc(Oc2ncccc2-c2ccnc(C)c2)cc(C(F)(F)F)c1` [Compound 40, 2-(3-methoxy-5-(trifluoromethyl)phenoxy)-2′-methyl-3,4′-bipyridine], the EC50 in [1], in assay [5], in [8], in [12], in assay [14] and in assay [15] was 1 to 1000 nM throughout. Also, the EC50 in assay [17] and in assay [18] was 1 to 1000 nM in each case. In addition, the minimal effective concentration in [2] is 1 µM; in assay [3] it was 0.001 to 1 µM; in assay [4], 0.001 to 1 µM; in [6], 0.001 to 1 µM; in assay [7] it was 0.001 to 1 µM; in assay [9], 0.001 to 1 µM. In addition, the minimal effective concentration in assay [10] is 0.001 to 1 µM; in assay [11], 1 µM; in assay [13], 0.001 to 1 µM; in assay [16], 0.001 to 1 µM.
As for `COc1cc(NC(C)=O)cc(Oc2ncccc2-c2ccnc(Cl)c2)c1` [Compound 46, N-(3-((2′-chloro-[3,4′-bipyridin]-2-yl)oxy)-5-methoxyphenyl)acetamide], the EC50 in assay [1], in assay [5], in assay [8], in assay [12], in assay [14] and in assay [15] was 1 to 1000 nM throughout. Moreover, the EC50 in assay [17] and in [18] was 1 to 1000 nM throughout. Further, the minimal effective concentration in assay [2] was 1 µM; in assay [3], 0.001 to 1 µM; in [4], 0.001 to 1 µM; in [6], 0.001 to 1 µM; in assay [7], 0.001 to 1 µM; in assay [9], 0.001 to 1 µM. Further, the minimal effective concentration in assay [10] was 0.001 to 1 µM; in [11] it was 1 µM; in assay [13] it was 0.001 to 1 µM; in [16], 0.001 to 1 µM.
Take `COc1cc(Oc2ncccc2-c2ccnc(OC)c2)cc(-n2cccn2)c1` [Compound 31, 2′-methoxy-2-(3-methoxy-5-(1H-pyrazol-1-yl)phenoxy)-3,4′-bipyridine]: the EC50 in assay [1], in assay [5], in assay [8], in assay [12], in assay [14] and in assay [15] was 1 to 1000 nM throughout. Also, the EC50 in assay [17] and in assay [18] was 1 to 1000 nM in each case. Besides, the minimal effective concentration in assay [2] was 1 µM; in assay [3], 0.001 to 1 µM; in assay [4] it was 0.001 to 1 µM; in [6] it was 0.001 to 1 µM; in [7], 0.001 to 1 µM; in assay [9], 0.001 to 1 µM. The minimal effective concentration in assay [10] was 0.001 to 1 µM; in assay [11] it was 1 µM; in [13], 0.001 to 1 µM; in [16], 0.001 to 1 µM.
For the molecule `COc1cc(Oc2ncccc2-c2ccnc(OC)c2)cc(C(F)(F)F)c1` [Compound 30, 2′-methoxy-2-(3-methoxy-5-(trifluoromethyl)phenoxy)-3,4′-bipyridine], the EC50 in assay [1], in assay [5], in [8], in assay [12], in assay [14] and in [15] was 1 to 1000 nM throughout. The EC50 in assay [17] and in [18] was 1 to 1000 nM throughout. Moreover, the minimal effective concentration in assay [2] was 1 µM; in assay [3], 0.001 to 1 µM; in assay [4] it was 0.001 to 1 µM; in assay [6], 0.001 to 1 µM; in [7], 0.001 to 1 µM; in [9] it was 0.001 to 1 µM. In addition, the minimal effective concentration in [10] is 0.001 to 1 µM; in assay [11] it was 1 µM; in assay [13], 0.001 to 1 µM; in assay [16], 0.001 to 1 µM.
